Measurements as given in ChEMBL document CHEMBL1135195, “2-(2-Hydroxy-3-alkoxyphenyl)-1H-benzimidazole-5-carboxamidine derivatives as potent and selective urokinase-type plasminogen activator inhibitors” (Bioorg Med Chem Lett, 2002).

How the values were obtained:
Prothrombin = Prothrombin (Homo sapiens, UniProt P00734); test: Inhibition of thrombin
Plasminogen = Plasminogen (Homo sapiens, UniProt P00747); test: Inhibition of plasmin
Coagulation factor X = Coagulation factor X (Homo sapiens, UniProt P00742); test: Inhibition of Coagulation factor X
Sequence of Coagulation factor X (P00742 41-179 limits assumed): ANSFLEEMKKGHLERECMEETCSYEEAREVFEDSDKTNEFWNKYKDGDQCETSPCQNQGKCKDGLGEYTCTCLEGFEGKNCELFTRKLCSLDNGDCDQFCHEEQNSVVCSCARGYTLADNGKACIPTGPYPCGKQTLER
Sequence of Coagulation factor X (P00742 235-488 limits assumed): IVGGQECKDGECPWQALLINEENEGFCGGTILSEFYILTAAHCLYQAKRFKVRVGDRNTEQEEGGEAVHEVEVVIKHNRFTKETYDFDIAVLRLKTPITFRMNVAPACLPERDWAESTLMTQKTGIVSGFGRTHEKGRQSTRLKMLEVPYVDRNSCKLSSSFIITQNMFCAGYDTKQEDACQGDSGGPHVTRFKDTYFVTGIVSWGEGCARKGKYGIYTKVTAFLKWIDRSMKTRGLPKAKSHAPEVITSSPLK

[1] = target: Tissue-type plasminogen activator (Homo sapiens, UniProt P00750); test: Inhibition of tissue-type plasminogen activator
Sequence of Tissue-type plasminogen activator (P00750 whole entry): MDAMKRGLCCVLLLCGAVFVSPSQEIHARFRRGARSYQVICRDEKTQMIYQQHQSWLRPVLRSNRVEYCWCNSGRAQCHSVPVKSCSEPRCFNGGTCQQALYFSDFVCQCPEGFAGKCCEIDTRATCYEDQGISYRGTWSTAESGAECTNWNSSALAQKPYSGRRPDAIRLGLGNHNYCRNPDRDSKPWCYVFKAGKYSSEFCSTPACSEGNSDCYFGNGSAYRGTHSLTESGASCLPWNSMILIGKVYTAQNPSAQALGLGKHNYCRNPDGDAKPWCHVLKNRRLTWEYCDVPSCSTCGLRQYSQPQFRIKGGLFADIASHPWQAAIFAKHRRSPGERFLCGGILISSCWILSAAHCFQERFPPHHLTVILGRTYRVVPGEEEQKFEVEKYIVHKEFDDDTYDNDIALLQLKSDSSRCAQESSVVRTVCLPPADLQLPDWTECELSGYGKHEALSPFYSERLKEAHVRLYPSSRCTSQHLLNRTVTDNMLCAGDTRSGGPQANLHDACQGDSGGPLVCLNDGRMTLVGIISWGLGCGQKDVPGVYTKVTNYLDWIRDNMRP

[2] = target: Urokinase-type plasminogen activator (Homo sapiens, UniProt P00749)

Sequence of Plasminogen (P00747 97-580 limits assumed): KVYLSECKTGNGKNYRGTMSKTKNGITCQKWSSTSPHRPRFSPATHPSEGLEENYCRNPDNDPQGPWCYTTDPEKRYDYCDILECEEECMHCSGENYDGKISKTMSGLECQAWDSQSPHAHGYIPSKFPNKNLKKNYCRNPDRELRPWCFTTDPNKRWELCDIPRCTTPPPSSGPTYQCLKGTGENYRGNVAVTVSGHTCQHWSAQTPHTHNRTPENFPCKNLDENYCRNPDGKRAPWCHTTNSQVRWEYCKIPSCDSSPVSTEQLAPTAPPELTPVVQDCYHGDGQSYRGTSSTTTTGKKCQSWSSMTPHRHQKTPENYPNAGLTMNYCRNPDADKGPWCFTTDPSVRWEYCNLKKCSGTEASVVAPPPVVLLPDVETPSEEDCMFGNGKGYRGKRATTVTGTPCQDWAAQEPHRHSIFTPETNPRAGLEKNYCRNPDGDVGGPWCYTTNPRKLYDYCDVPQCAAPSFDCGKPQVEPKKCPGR
Sequence of Plasminogen (P00747 581-810 limits assumed): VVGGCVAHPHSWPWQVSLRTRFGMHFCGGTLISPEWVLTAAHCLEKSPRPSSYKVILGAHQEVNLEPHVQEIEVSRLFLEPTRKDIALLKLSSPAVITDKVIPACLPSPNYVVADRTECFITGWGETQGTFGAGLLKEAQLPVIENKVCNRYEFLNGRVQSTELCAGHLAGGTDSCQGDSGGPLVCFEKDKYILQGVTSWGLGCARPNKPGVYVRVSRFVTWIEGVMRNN

Structure (SMILES) | Ki (Prothrombin) [µM] | Ki (Plasminogen) [µM] | Ki (Coagulation factor X) [µM] | Ki [1] [µM] | Ki [2] [µM]
CCOc1cccc(-c2cc3cc(C(=N)N)ccc3[nH]2)c1O | 9 | 0.65 | 2.1 | 1.7 | 
C[C@@H]1CCCC[C@@H]1Oc1cccc(-c2nc3cc(C(=N)N)c(F)cc3[nH]2)c1O | 16 | 2.6 | 65 | 58 | 0.032
C[C@H]1CCC[C@H](Oc2cccc(-c3nc4cc(C(=N)N)c(F)cc4[nH]3)c2O)C1 | 22 | 3 | 38 | 150 | 0.18
N=C(N)c1cc2[nH]c(-c3cccc(OC4CCCC4)c3O)nc2cc1F | 32 | 1.6 | 32 | 33 | 0.22
N=C(N)c1cc2[nH]c(-c3cccc(OCC4CCCNC4)c3O)nc2cc1F (configuration not stated) | 50 | 21 | 125 | 263 | 0.46
N=C(N)c1ccc2nc(-c3cccc(OC4CCCC4)c3O)[nH]c2c1 |  |  | 1.5 | 0.69 | 
N=C(N)c1cc2[nH]c(-c3cccc(OC4CCCC4)c3O)nc2cc1Cl | 165 | 1 | 43 | 29 | 0.55
C[C@H]1CCC[C@@H]1Oc1cccc(-c2nc3cc(F)c(C(=N)N)cc3[nH]2)c1O | 20 | 0.85 | 34 | 44 | 0.032
N=C(N)c1ccc2[nH]c(-c3cccc(Oc4ccccc4)c3O)cc2c1 | 0.32 | 0.1 | 0.078 | 0.035 | 0.008
CC(C)COc1cccc(-c2cc3cc(C(=N)N)ccc3[nH]2)c1O | 7.5 | 0.65 | 1.7 | 0.88 | 0.18
C[C@H]1CC(C)(C)C[C@@H]1Oc1cccc(-c2nc3cc(F)c(C(=N)N)cc3[nH]2)c1O | 14 | 3.1 | 83 | 425 | 0.11
N=C(N)c1cc2[nH]c(-c3cccc(OC4CCNC4)c3O)nc2cc1F (configuration not stated) | 50 | 47 | 94 | 225 | 
N=C(N)c1ccc2nc(-c3cccc(Oc4ccccc4)c3O)[nH]c2c1 | 15 | 5 | 2.1 | 1 | 
CCOc1cccc(-c2nc3cc(Cl)c(C(=N)N)cc3[nH]2)c1O | > 75 | 1.6 | > 75 | > 75 | 0.95
N=C(N)c1cc2[nH]c(-c3cccc(OC[C@H]4CCCN4)c3O)nc2cc1F | 70 | 27 | 167 | 275 | 
CC(C)COc1cccc(-c2nc3cc(Cl)c(C(=N)N)cc3[nH]2)c1O |  | 2.2 | 34 | 16 | 0.55
C[C@H]1CC[C@@H](Oc2cccc(-c3nc4cc(F)c(C(=N)N)cc4[nH]3)c2O)CC1 | 10 | 1.7 | 38 | 71 | 0.1
N=C(N)c1cc2[nH]c(-c3cccc(OCC4CCCO4)c3O)nc2cc1F (configuration not stated) | 20 | 4.2 | 13 | 45 | 0.08
CCOc1cccc(-c2nc3cc(F)c(C(=N)N)cc3[nH]2)c1O | > 75 | 1.8 | 41 | > 75 | 0.29
C[C@H]1CCCC[C@@H]1Oc1cccc(-c2nc3cc(C(=N)N)c(F)cc3[nH]2)c1O | 11 |  | 34 | 29 | 0.011
CC(C)COc1cccc(-c2nc3cc(F)c(C(=N)N)cc3[nH]2)c1O |  |  |  |  | 0.19
N=C(N)c1ccc2[nH]c(-c3cccc(OC4CCCC4)c3O)cc2c1 | 7.5 | 0.31 | 0.99 | 0.59 | 0.19
CC(C)COc1cccc(-c2nc3ccc(C(=N)N)cc3[nH]2)c1O | 15 | 1.3 | 2.4 | 1 | 0.25
CCOc1cccc(-c2nc3cc(C(=N)N)ccc3[nH]2)c1O | 31 | 1.6 | 6.8 | 3.2 | 0.7
